Patent US7420051B2, “Synthetic process for the manufacture of an ecteinaschidin compound” (Pharma Mar, S.A., priority 2000, dated 2008)

Legend:
Type in all cases: cell-based
[1] = tested on: P-388 (suspension culture of a lymphoid neoplasm from DBA/2 mouse); test: Cytotoxic activity screening, P-388 cells; settings: Mus musculus, P388, 72 h, three days of incubation, approximate IC50
Procedure: (§1) Cell Cultures. Cells were maintained in logarithmic phase of growth in Eagle's Minimum Essential Medium, with Earle's Balanced Salts, with 2.0 mM L-glutamine, with non-essential amino acids, without sodium bicarbonate (EMEM/neaa); supplemented with 10% Fetal Calf Serum (FCS), 10^−2 M sodium bicarbonate and 0.1 g/l penicillin-G+streptomycin sulfate.
(§2) A simple screening procedure has been carried out to determine and compare the antitumour activity of these compounds, using an adapted form of the method described by Bergeron et al (1984). The tumour cell line employed have been P-388 (suspension culture of a lymphoid neoplasm from DBA/2 mouse), A-549 (monolayer culture of a human lung carcinoma), HT-29 (monolayer culture of a human colon carcinoma) and MEL-28 (monolayer culture of a human melanoma).
P-388 cell were seeded into 16 mm wells at 1×10^4 cells per well in 1 ml aliquots of MEM 5FCS containing the indicated concentration of drug. A separate set of cultures without drug was seeded as control growth to ensure that cells remained in exponential phase of growth. All determinations were carried out in duplicate.

[2] = tested on: HT-29 (monolayer culture of a human colon carcinoma); test: Cytotoxic activity screening, HT-29 cells; settings: Homo sapiens, HT-29, 72 h, three days of incubation, Crystal Violet, approximate IC50
Procedure: as §1, §2
(§3) A-549, HT-29 and MEL-28 were seeded into 16 mm wells at 2×10^4 cells per well in 1 ml aliquots of MEM 10FCS containing the indicated concentration of drug. A separate set of cultures without drug was seeded as control growth to ensure that cells remained in exponential phase of growth. All determinations were carried out in duplicate. After three days of incubation at 37° C., 10% CO2 in a 98% humid atmosphere, the wells were stained with 0.1% Crystal Violet. An approximately IC50 was determined by comparing the growth in wells with drug to the growth in wells control.

[3] = tested on: MEL-28 (monolayer culture of a human melanoma); test: Cytotoxic activity screening, MEL-28 cells; settings: SK-MEL-28, 72 h, three days of incubation, Crystal Violet, approximate IC50
Procedure: as §1, §2, §3

CV-1 = test: Cytotoxic activity screening, CV-1 cells; settings: Cercopithecidae
[4] = tested on: A-549 (monolayer culture of a human lung carcinoma); test: Cytotoxic activity screening, A-549 cells; settings: Homo sapiens, A549, 72 h, three days of incubation, Crystal Violet, approximate IC50
Procedure: as §1, §2, §3

DU-145 = test: Cytotoxic activity screening, DU-145 cells; settings: Homo sapiens, DU-145, DU-145 cells

| SMILES | IC50 [1] | IC50 [2] | IC50 [3] | IC50 (CV-1) | IC50 [4] | IC50 (DU-145) |
| --- | --- | --- | --- | --- | --- | --- |
| COC1=C(C)C(=O)C2=C(C1=O)[C@H](CNC(=O)C(C)N)N1C(C2)[C@H]2c3c(cc(C)c(OC)c3O)C[C@@H]([C@@H]1C#N)N2C (some centres unmarked) | 0.009 µM | 0.018 µM | 0.018 µM | 0.023 µM | 0.018 µM | – |
| C=CCOc1c(C)c2c(c3c1CC1[C@H]4c5c(cc(C)c(OC)c5O)C[C@@H]([C@H](C#N)N1[C@H]3CNC(=O)OCC(Cl)(Cl)Cl)N4C)OCO2 (some centres unmarked) | – | – | – | 0.014 µM | – | 0.014 µM |
| C=CCOc1c(C)c2c(c3c1CC1[C@H]4c5c(cc(C)c(OC)c5OCOC)C[C@@H]([C@H](C#N)N1[C@H]3CNC(=O)OCC(Cl)(Cl)Cl)N4C)OCO2 (some centres unmarked) | – | – | – | 0.13 µM | – | 0.13 µM |
| COCOc1c(OC)c(C)cc2c1[C@@H]1C3Cc4c(OC(C)=O)c(C)c5c(c4[C@H](CNC(=O)[C@H](C)NC(=O)OC(C)(C)C)N3[C@@H](C#N)[C@H](C2)N1C)OCO5 (some centres unmarked) | 0.13 µM | 0.13 µM | 0.13 µM | – | 0.13 µM | 0.13 µM |
| COc1c(C)cc2c(c1O)[C@@H]1C3Cc4c(OC(C)=O)c(C)c5c(c4[C@H](CNC(=O)[C@H](C)N)N3[C@@H](C#N)[C@H](C2)N1C)OCO5 (some centres unmarked) | 0.008 µM | 0.008 µM | 0.008 µM | – | 0.016 µM | 0.016 µM |
| COc1c(C)cc2c(c1O)[C@@H]1C3Cc4c(OC(C)=O)c(C)c5c(c4[C@H](CNC(=O)[C@H](C)NC(=S)Nc4ccccc4)N3[C@@H](C#N)[C@H](C2)N1C)OCO5 (some centres unmarked) | 0.001 µM | 0.001 µM | 0.001 µM | – | 0.001 µM | 0.001 µM |
| COc1c(C)cc2c(c1O)[C@@H]1C3Cc4c(OC(C)=O)c(C)c5c(c4[C@H](CN)N3[C@@H](C#N)[C@H](C2)N1C)OCO5 (some centres unmarked) | 0.01 µM | 0.01 µM | 0.01 µM | – | 0.01 µM | 0.01 µM |
| COC1=C(C)C(=O)C2=C(C1=O)[C@H](CNC(=O)C(C)N=CSNc1ccccc1)N1C(C2)[C@H]2c3c(cc(C)c(OC)c3O)C[C@@H]([C@@H]1C#N)N2C (some centres unmarked) | 0.015 µM | 0.015 µM | 0.015 µM | 0.018 µM | 0.015 µM | – |
| COCOc1c(OC)c(C)cc2c1[C@@H]1C3CC4=C(C(=O)C(OC)=C(C)C4=O)[C@H](CNC(C)=O)N3[C@@H](C#N)[C@H](C2)N1C (some centres unmarked) | – | – | – | 0.22 µM | – | – |
| COCOc1c(OC)c(C)cc2c1[C@@H]1C3CC4=C(C(=O)C(O)=C(C)C4=O)[C@H](CNC(C)=O)N3[C@@H](C#N)[C@H](C2)N1C (some centres unmarked) | > 9 µM | > 18.1 µM | > 18.1 µM | > 18.1 µM | > 18.1 µM | – |
| COCOc1c(OC)c(C)cc2c1[C@@H]1C3Cc4c(O)c(C)c5c(c4[C@H](CNC(C)=O)N3[C@@H](C#N)[C@H](C2)N1C)OCO5 (some centres unmarked) | > 1.77 µM | > 1.77 µM | > 1.77 µM | – | > 1.77 µM | > 1.77 µM |
| C=CCOc1c(C)c2c(c3c1CC1[C@H]4c5c(cc(C)c(OC)c5OCOC)C[C@@H]([C@H](C#N)N1[C@H]3CNC(C)=O)N4C)OCO2 (some centres unmarked) | > 1.65 µM | > 1.65 µM | > 1.65 µM | – | > 1.65 µM | > 1.65 µM |
| COCOc1c(OC)c(C)cc2c1[C@@H]1C3Cc4c(OC(C)=O)c(C)c5c(c4[C@H](CNC(C)=O)N3[C@@H](C#N)[C@H](C2)N1C)OCO5 (some centres unmarked) | 0.016 µM | 0.016 µM | 0.016 µM | – | 0.016 µM | 0.016 µM |
| COc1c(C)cc2c(c1O)[C@@H]1C3Cc4c(OC(C)=O)c(C)c5c(c4[C@H](CNC(C)=O)N3[C@@H](C#N)[C@H](C2)N1C)OCO5 (some centres unmarked) | 0.001 µM | 0.001 µM | 0.001 µM | – | 0.001 µM | 0.001 µM |
| C/C=C(\OC(C)=O)C1=C(C2=COCO2)[C@H](CNC(=O)CCCC)N2C(C1)[C@H]1c3c(cc(C)c(OC)c3O)C[C@@H]([C@@H]2C#N)N1C (some centres unmarked) | 0.007 µM | 0.007 µM | 0.007 µM | – | 0.007 µM | 0.007 µM |
